Measured values as given in patent publication US9332770B2, “Anti-listerial mixed culture and method for producing cheese” (CSK Food Enrichment B.V., priority 2011, dated 2016).

Tests used:
[1] = system: Lactobacillus plantarum LMG P-26358; experiment: growth profile in MRS broth substituted with various sugars; type: cell-based; details: for GT (generation time) / μmax (specific growth rate): 2% sugar in the MRS broth; for ability of Lb. plantarum LMG P-26358 to grow on the sugar: sugar acidification profiles
L. innocua = experiment: frequency of bacteriocin resistance development; type: cell-based, Listeria innocua; details: 2560 au/ml bacteriocin (purified preparation) and/or 320 au/ml nisin
Description: The frequency of development of resistance in L. innocua to 2560 au/ml of the bacteriocin produced by Lb. plantarum LMG P-26358 (purified preparation) was calculated at 1.13×10^−3. […] The resistant colonies were picked off and tested for their sensitivity to the bacteriocin produced by Lb. plantarum LMG P-26358.

| Compound | GT (generation time) [1] | μmax (specific growth rate) [1] | ability of Lb. plantarum LMG P-26358 to grow on the sugar [1] | frequency of development of resistance in L. innocua (L. innocua) |
| --- | --- | --- | --- | --- |
| O=C(CO)[C@@H](O)[C@H](O)[C@H](O)CO [Fructose] | 104 min | 0.174 OD600 · hour^−1 | capable of growing |  |
| O=C[C@H](O)[C@@H](O)[C@H](O[C@@H]1O[C@H](CO)[C@@H](O)[C@H](O)[C@H]1O)[C@H](O)CO [Cellobiose] | 90 min | 0.2018 OD600 · hour^−1 | capable of growing |  |
| O=C[C@H](O)[C@@H](O)[C@@H](O)[C@H](O)CO [Galactose] | 123 min | 0.1473 OD600 · hour^−1 | capable of growing |  |
| OC[C@H]1O[C@H](OC[C@H]2O[C@H](O[C@]3(CO)O[C@H](CO)[C@@H](O)[C@@H]3O)[C@H](O)[C@@H](O)[C@@H]2O)[C@H](O)[C@@H](O)[C@H]1O [Raffinose] | 246 min | 0.0734 OD600 · hour^−1 | unable to metabolise |  |
| nisin |  |  |  | 2.16×10^−2 |
| OC[C@H]1O[C@@H](O[C@H]2[C@H](O)[C@@H](O)C(O)O[C@@H]2CO)[C@H](O)[C@@H](O)[C@H]1O (stereo partly shown) [Lactose] | 100 min | 0.1815 OD600 · hour^−1 | can grow efficiently |  |
| OC[C@H]1O[C@H](O[C@H]2O[C@H](CO)[C@@H](O)[C@H](O)[C@H]2O)[C@H](O)[C@@H](O)[C@@H]1O [Trehalose] | 92 min | 0.1963 OD600 · hour^−1 | capable of growing |  |
| OC[C@H]1O[C@@](CO)(O[C@H]2O[C@H](CO)[C@@H](O)[C@H](O)[C@H]2O)[C@@H](O)[C@@H]1O [Sucrose] | 86 min | 0.2088 OD600 · hour^−1 | capable of growing |  |
| OC[C@H]1O[C@H](O[C@H]2[C@H](O)[C@@H](O)[C@H](O)O[C@@H]2CO)[C@H](O)[C@@H](O)[C@@H]1O [Maltose] | 79 min | 0.2277 OD600 · hour^−1 | capable of growing |  |
